Results reported in PubChem BioAssay AID248 (DTP/NCI, 2004).
“And” between values parts separate entries of the source, which are not always exact repeats. Equal values may be shown once. Toxic doses and inconclusive results are not listed. Cut-off read from the data, not from the text of the source: active = T/C of 150% or more; inactive = T/C below 125%.

Test system: L1210 leukemia ip in BDF1 mice, survival T/C
Experiment: NCI In Vivo Anticancer Drug Screen. Data for tumor model L1210 Leukemia (intraperitoneal) in B6D2F1 (BDF1) mice
Details: endpoint: mean survival time, higher = longer survival
In short: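 Each compound was tested against a transplantable tumor grown in mice. The endpoint was survival, with treated animals benchmarked against vehicle controls as a simple ratio.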

[1] = dose: 100.0 mg/kg/injection, schedule: Q04DX002 (ip), vehicle: Klucel (hydroxypropylcellulose) (HPC)
[2] = dose: 200.0 mg/kg/injection, schedule: Q04DX002 (ip), vehicle: Klucel (hydroxypropylcellulose) (HPC)
[3] = dose: 400.0 mg/kg/injection, schedule: Q04DX002 (ip), vehicle: Klucel (hydroxypropylcellulose) (HPC)
[4] = dose: 12.5 mg/kg/injection, schedule: Q01DX009 (ip), vehicle: Klucel (hydroxypropylcellulose) (HPC)
[5] = dose: 25.0 mg/kg/injection, schedule: Q01DX009 (ip), vehicle: Klucel (hydroxypropylcellulose) (HPC)
[6] = dose: 25.0 mg/kg/injection, schedule: Q04DX003 (ip), vehicle: Klucel (hydroxypropylcellulose) (HPC)
[7] = dose: 50.0 mg/kg/injection, schedule: Q04DX003 (ip), vehicle: Klucel (hydroxypropylcellulose) (HPC)
[8] = dose: 100.0 mg/kg/injection, schedule: Q04DX003 (ip), vehicle: Klucel (hydroxypropylcellulose) (HPC)
[9] = dose: 100.0 mg/kg/injection, schedule: Q01DX009 (ip), vehicle: saline with Tween-80
[10] = dose: 200.0 mg/kg/injection, schedule: Q01DX009 (ip), vehicle: saline with Tween-80
[11] = dose: 400.0 mg/kg/injection, schedule: Q01DX009 (ip), vehicle: saline with Tween-80
[12] = dose: 100.0 mg/kg/injection, schedule: Q01DX009 (ip), vehicle: Klucel (hydroxypropylcellulose) (HPC)
[13] = dose: 200.0 mg/kg/injection, schedule: Q04DX003 (ip), vehicle: Klucel (hydroxypropylcellulose) (HPC)
[14] = dose: 400.0 mg/kg/injection, schedule: Q01DX009 (ip), vehicle: Klucel (hydroxypropylcellulose) (HPC)
[15] = dose: 400.0 mg/kg/injection, schedule: Q04DX003 (ip), vehicle: Klucel (hydroxypropylcellulose) (HPC)
[16] = dose: 100.0 mg/kg/injection, schedule: Q04DX003 (ip), vehicle: saline with Tween-80
[17] = dose: 200.0 mg/kg/injection, schedule: Q04DX003 (ip), vehicle: saline with Tween-80
[18] = dose: 100.0 mg/kg/injection, schedule: Q01DX001 (ip), vehicle: saline
[19] = dose: 200.0 mg/kg/injection, schedule: Q01DX009 (ip), vehicle: Klucel (hydroxypropylcellulose) (HPC)

Measured: T/C

CS(=O)(=O)CCCl
inactive: dose: 100.0 mg/kg/injection, schedule: Q01DX009 (ip), vehicle: carboxymethylcellulose (CMC) 102 % of control and 106 % of control | [1] 103 % of control | dose: 100.0 mg/kg/injection, schedule: Q04DX002 (ip), vehicle: carboxymethylcellulose (CMC) 100 % of control and 109 % of control | dose: 100.0 mg/kg/injection, schedule: Q04DX003 (ip), vehicle: carboxymethylcellulose (CMC) 107 % of control | dose: 200.0 mg/kg/injection, schedule: Q01DX009 (ip), vehicle: carboxymethylcellulose (CMC) 98 % of control and 102 % of control | [2] 103 % of control | dose: 200.0 mg/kg/injection, schedule: Q04DX002 (ip), vehicle: carboxymethylcellulose (CMC) 97 % of control and 98 % of control | dose: 200.0 mg/kg/injection, schedule: Q04DX003 (ip), vehicle: carboxymethylcellulose (CMC) 98 % of control | [3] 103 % of control | dose: 400.0 mg/kg/injection, schedule: Q04DX002 (ip), vehicle: carboxymethylcellulose (CMC) 102 % of control and 105 % of control | dose: 400.0 mg/kg/injection, schedule: Q04DX003 (ip), vehicle: carboxymethylcellulose (CMC) 102 % of control

CS(=O)(=O)OCCCCCCCCOS(C)(=O)=O
active: dose: 37.5 mg/kg/injection, schedule: Q01DX009 (ip), vehicle: Klucel (hydroxypropylcellulose) (HPC) 163 % of control
inactive: dose: 3.0 mg/kg/injection, schedule: Q01DX009 (ip), vehicle: Klucel (hydroxypropylcellulose) (HPC) 100 % of control | dose: 5.0 mg/kg/injection, schedule: Q01DX009 (ip), vehicle: Klucel (hydroxypropylcellulose) (HPC) 102 % of control | dose: 11.0 mg/kg/injection, schedule: Q01DX009 (ip), vehicle: Klucel (hydroxypropylcellulose) (HPC) 118 % of control | [4] 108 % of control | [5] 114 % of control | [6] 112 % of control | dose: 50.0 mg/kg/injection, schedule: Q01DX009 (ip), vehicle: Klucel (hydroxypropylcellulose) (HPC) 93 % of control | [7] 116 % of control | [8] 116 % of control

CCC(CCN(CC=C(C)C)CC=C(C)C)(C(N)=O)c1cccc2ccccc12 (stereo unspecified)
inactive: dose: 6.25 mg/kg/injection, schedule: Q01DX009 (ip), vehicle: Klucel (hydroxypropylcellulose) (HPC) 96 % of control | dose: 6.25 mg/kg/injection, schedule: Q04DX003 (ip), vehicle: Klucel (hydroxypropylcellulose) (HPC) 107 % of control | [4] 101 % of control | dose: 12.5 mg/kg/injection, schedule: Q04DX003 (ip), vehicle: Klucel (hydroxypropylcellulose) (HPC) 100 % of control | [5] 96 % of control | [6] 102 % of control

Nc1ccccc1SC1CC(=O)N(c2ccccc2Cl)C1=O (stereo unspecified)
inactive: [9] 98 % of control | [10] 95 % of control | [11] 97 % of control

CC(C)(C)C1CCC(NC(=O)CCl)CC1 (stereo unspecified)
inactive: [7] 98 % of control | [12] 103 % of control | [8] 96 % of control | [13] 102 % of control | [14] 94 % of control | [15] 104 % of control

O=C(N=C(c1ccccc1)c1ccccc1)c1ccccc1
inactive: [16] 90 % of control | [17] 90 % of control | dose: 400.0 mg/kg/injection, schedule: Q04DX003 (ip), vehicle: saline with Tween-80 88 % of control

CC(=O)c1ccc(OC(=O)Nc2ccccc2F)cc1
inactive: dose: 25.0 mg/kg/injection, schedule: Q01DX009 (ip), vehicle: saline with Tween-80 112 % of control | dose: 50.0 mg/kg/injection, schedule: Q01DX009 (ip), vehicle: saline with Tween-80 111 % of control | [9] 96 % of control and 110 % of control

CONP(=O)(NOC)c1ccccc1
inactive: [18] 103 % of control | dose: 200.0 mg/kg/injection, schedule: Q01DX001 (ip), vehicle: saline 95 % of control | dose: 400.0 mg/kg/injection, schedule: Q01DX001 (ip), vehicle: saline 90 % of control

CC1CN=C(c2ccc3ccccc3c2O)S1 (stereo unspecified)
inactive: dose: 100.0 mg/kg/injection, schedule: Q01DX005 (ip), vehicle: saline with Tween-80 90 % of control | [9] 113 % of control | dose: 100.0 mg/kg/injection, schedule: Q04DX002 (ip), vehicle: saline with Tween-80 103 % of control | dose: 200.0 mg/kg/injection, schedule: Q01DX005 (ip), vehicle: saline with Tween-80 90 % of control | [10] 90 % of control | dose: 200.0 mg/kg/injection, schedule: Q04DX002 (ip), vehicle: saline with Tween-80 96 % of control | [11] 94 % of control | dose: 400.0 mg/kg/injection, schedule: Q04DX002 (ip), vehicle: saline with Tween-80 103 % of control

CCCCCCCCN
inactive: dose: 25.0 mg/kg/injection, schedule: Q01DX001 (ip), vehicle: saline 103 % of control | dose: 25.0 mg/kg/injection, schedule: Q01DX009 (ip), vehicle: saline 108 % of control and 111 % of control | dose: 25.0 mg/kg/injection, schedule: Q04DX002 (ip), vehicle: saline 101 % of control and 105 % of control | dose: 25.0 mg/kg/injection, schedule: Q04DX003 (ip), vehicle: saline 101 % of control | dose: 50.0 mg/kg/injection, schedule: Q01DX001 (ip), vehicle: saline 101 % of control | dose: 50.0 mg/kg/injection, schedule: Q01DX009 (ip), vehicle: saline 104 % of control | dose: 50.0 mg/kg/injection, schedule: Q04DX002 (ip), vehicle: saline 100 % of control and 105 % of control | dose: 50.0 mg/kg/injection, schedule: Q04DX003 (ip), vehicle: saline 98 % of control | [18] 94 % of control | dose: 100.0 mg/kg/injection, schedule: Q01DX009 (ip), vehicle: saline 111 % of control

CC(=O)OC(C)C(=O)C(Cl)(Cl)Cl (stereo unspecified)
inactive: [12] 100 % of control | [8] 96 % of control | [19] 98 % of control | [13] 103 % of control | [14] 91 % of control | [15] 101 % of control

COc1ccc(C(CC(=O)c2ccc(C)cc2)Sc2ccccc2N)cc1 (stereo unspecified)
inactive: dose: 100.0 mg/kg/injection, schedule: Q01DX005 (ip), vehicle: Klucel (hydroxypropylcellulose) (HPC) 108 % of control | [12] 94 % of control | [1] 98 % of control | dose: 200.0 mg/kg/injection, schedule: Q01DX005 (ip), vehicle: Klucel (hydroxypropylcellulose) (HPC) 89 % of control | [19] 97 % of control | [2] 103 % of control | dose: 400.0 mg/kg/injection, schedule: Q01DX005 (ip), vehicle: Klucel (hydroxypropylcellulose) (HPC) 86 % of control | [14] 94 % of control | [3] 103 % of control

COc1ccc(-n2c(=O)c(N=Nc3ccc(Br)cc3)c(O)n(-c3ccccc3Cl)c2=S)cc1
inactive: dose: 37.5 mg/kg/injection, schedule: Q01DX001 (ip), vehicle: Klucel (hydroxypropylcellulose) (HPC) 110 % of control | dose: 75.0 mg/kg/injection, schedule: Q01DX001 (ip), vehicle: Klucel (hydroxypropylcellulose) (HPC) 104 % of control | dose: 150.0 mg/kg/injection, schedule: Q01DX001 (ip), vehicle: Klucel (hydroxypropylcellulose) (HPC) 95 % of control

COc1cc(OC)c(C(=O)c2ccccc2N)c(OC)c1
inactive: [16] 89 % of control | [17] 87 % of control

O=C(O)c1cc(N=C2C=CC(=C(c3ccccc3)c3ccc(Nc4ccc(Cl)c(C(=O)O)c4)cc3)C=C2)ccc1Cl
inactive: dose: 100.0 mg/kg/injection, schedule: Q01DX001 (ip), vehicle: other 97 % of control | [12] 105 % of control | dose: 200.0 mg/kg/injection, schedule: Q01DX001 (ip), vehicle: other 100 % of control | [19] 97 % of control | dose: 400.0 mg/kg/injection, schedule: Q01DX001 (ip), vehicle: other 103 % of control

Cc1cc(=O)[nH]c2c(Br)cccc12
inactive: dose: 75.0 mg/kg/injection, schedule: Q04DX003 (ip), vehicle: Klucel (hydroxypropylcellulose) (HPC) 87 % of control | dose: 150.0 mg/kg/injection, schedule: Q04DX003 (ip), vehicle: Klucel (hydroxypropylcellulose) (HPC) 97 % of control | dose: 300.0 mg/kg/injection, schedule: Q04DX003 (ip), vehicle: Klucel (hydroxypropylcellulose) (HPC) 97 % of control
